The source of these data is US12178842B2, “PCSK9 antagonist compounds” (MERCK SHARP & DOHME LLC, priority 2019, dated 2024).

What all share (format): binding
Assay [1] has as its target T1, PCSK9 (Homo sapiens, UniProt Q8NBP7).
T1 construct: biotin (biotinylated); purchased
Nature of the assay: PCSK9 Alexa FRET Standard TR-FRET assay. The following applies: Ki calculated from IC50 and KD of AF cyclic peptide Reagent A; 0.5 nM PCSK9, 20 nM AF cyclic peptide; read-out: Alexa FRET Stdt TR-FRET. The gist of the method:
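TR-FRET displacement with final 0.5 nM biotinylated PCSK9, 1.25 nM streptavidin-Eu and 20 nM AlexaFluor cyclic peptide in 50 mM HEPES pH 7.4, 0.15 M NaCl, 5 mM CaCl2, 0.01% BSA, 0.01% P20; ≥2 h at room temperature. IC50 by sigmoidal fit, converted to Ki (nM) using tracer KD.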

Assay [2] addresses T1, PCSK9. As to the kind of experiment: PCSK9 Alexa FRET Plus TR-FRET assay. In short, it runs like this:
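TR-FRET competition between europium-labeled PCSK9 and AlexaFluor-tagged cyclic peptide (prepared at 1920 nM stock), incubated at least 2 h at room temperature. IC50 from sigmoidal nonlinear fit converted to Ki using the peptide KD; falling europium counts flag false-positive inhibition; values reported in nM.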

The target of assay [3] is T1, PCSK9. As to the kind of experiment: PCSK9 Alexa FRET Ultra TR-FRET assay. The gist of the method: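 Competition of compounds with AlexaFluor-tagged cyclic peptide (1920 nM solution, not final) for europium-labeled PCSK9, read by TR-FRET after at least 2 h at room temperature. IC50 from sigmoidal fit, converted to Ki (nM) using peptide KD; falling europium counts flag false positives.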
For orientation: In TR-FRET formats the signal depends on donor and acceptor labels being close together.

Where [4] appears, read: Ki calculated from IC50 and KD of AF cyclic peptide Reagent B, 0.5 nM PCSK9, 960 nM AF cyclic peptide, read-out: Alexa FRET Plus TR-FRET.
Setting [5] is: Ki Ultra, calculated from IC50 and KD of AF cyclic peptide, 0.5 nM PCSK9, 960 nM AF cyclic peptide, read-out: Alexa FRET Ultra TR-FRET.

A value given as a limit tells only on which side of the number the result lay.

T1 sequence (Q8NBP7 153-692): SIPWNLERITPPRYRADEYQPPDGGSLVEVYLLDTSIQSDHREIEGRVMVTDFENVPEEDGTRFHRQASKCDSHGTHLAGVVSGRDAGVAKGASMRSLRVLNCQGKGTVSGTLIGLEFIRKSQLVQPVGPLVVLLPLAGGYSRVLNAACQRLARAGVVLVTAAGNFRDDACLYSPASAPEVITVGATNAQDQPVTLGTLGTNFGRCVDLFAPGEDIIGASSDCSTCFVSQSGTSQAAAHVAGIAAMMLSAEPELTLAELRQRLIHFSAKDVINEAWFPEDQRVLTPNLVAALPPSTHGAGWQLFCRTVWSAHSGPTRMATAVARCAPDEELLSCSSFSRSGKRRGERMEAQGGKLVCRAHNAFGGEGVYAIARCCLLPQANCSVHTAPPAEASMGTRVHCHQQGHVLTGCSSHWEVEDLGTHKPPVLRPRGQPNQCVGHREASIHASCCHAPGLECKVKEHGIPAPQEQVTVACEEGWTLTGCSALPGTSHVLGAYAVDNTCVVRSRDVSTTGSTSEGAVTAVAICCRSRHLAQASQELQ

For `COc1ccc(C[C@@H]2NC(=O)[C@H]([C@@H](C)O)NC(=O)[C@@H]3[C@@H]4CCN3C(=O)[C@@H]3Cc5cn(c6ccc(F)cc56)CCCCCCN(Cc5ccc(cc5)CCNC(=O)[C@]5(C)CCCN5C2=O)C(=O)CCC(=O)N[C@@H](CNC(=O)CCOCCOCC[N+](C)(C)CCNC(=O)COCCOCCNC(=O)COCCOCCNC(=O)CC[C@H](NC(=O)CCCCCCCCCCCCCCC(=O)O)C(=O)O)C(=O)N[C@H](CNC(=O)CCOCCOCC[N+](C)(C)C)C(=O)N[C@@H](Cc2cccc(c2)CNC(=O)CO4)C(=O)N3)cc1` [Ex-64], the Ki on PCSK9 [1] was less than 1260 pM; at PCSK9 [2] (setting [4]) it was 12 pM; at PCSK9 [3] (setting [5]), 28 pM.

In the case of `COc1ccc(C[C@@H]2NC(=O)[C@H]([C@@H](C)O)NC(=O)[C@@H]3[C@@H]4CCN3C(=O)[C@@H]3Cc5cn(c6ccc(F)cc56)CCCCCCN(Cc5ccc(cc5)CCNC(=O)[C@]5(C)CCCN5C2=O)C(=O)CCC(=O)N[C@@H](CNC(=O)COCCOCC[N+](C)(C)CCNC(=O)COCCOCCNC(=O)COCCOCCNC(=O)CC[C@H](NC(=O)CCCCCCCCCCCCCCCCC(=O)O)C(=O)O)C(=O)N[C@H](CNC(=O)CCOCCOCC[N+](C)(C)C)C(=O)N[C@@H](Cc2cccc(c2)CNC(=O)CO4)C(=O)N3)cc1` [Ex-65], the Ki is less than 1260 pM at PCSK9 [1], less than 6 pM on PCSK9 [2] (setting [4]) and 24 pM on PCSK9 [3] (setting [5]).

Take `COc1ccc(C[C@@H]2NC(=O)[C@H]([C@@H](C)O)NC(=O)[C@@H]3[C@@H]4CCN3C(=O)[C@@H]3Cc5cn(c6ccc(F)cc56)CCCCCCN(Cc5ccc(cc5)CCNC(=O)[C@]5(C)CCCN5C2=O)C(=O)CCC(=O)N[C@@H](CNC(=O)COCCOCC[N+](C)(C)CCOCCNC(=O)COCCOCCNC(=O)COCCOCCNC(=O)CC[C@H](NC(=O)CC[C@H](NC(=O)CCCCCCCCCCCCCCC(=O)O)C(=O)O)C(=O)O)C(=O)N[C@H](CNC(=O)CCOCCOCC[N+](C)(C)C)C(=O)N[C@@H](Cc2cccc(c2)CNC(=O)CO4)C(=O)N3)cc1` [Ex-66]: the Ki on PCSK9 [1] is less than 1260 pM; at PCSK9 [2] (setting [4]), 7 pM; at PCSK9 [3] (setting [5]) it was 27 pM.

On to `COc1ccc(C[C@@H]2NC(=O)[C@H]([C@@H](C)O)NC(=O)[C@@H]3[C@@H]4CCN3C(=O)[C@@H]3Cc5cn(c6ccc(F)cc56)CCCCCCN(Cc5ccc(cc5)CCNC(=O)[C@]5(C)CCCN5C2=O)C(=O)CCC(=O)N[C@@H](C)C(=O)N[C@H](CNC(=O)CCOCCOCC[N+](C)(C)CCNC(=O)COCCOCCNC(=O)COCCOCCNC(=O)CCC(CS(=O)(=O)O)NC(=O)CCCCCCCCCCCCCCCCC(=O)O)C(=O)N[C@@H](Cc2cccc(c2)CNC(=O)CO4)C(=O)N3)cc1` (stereo partly drawn) [Ex-67], for which the Ki at PCSK9 [1] was less than 1260 pM; at PCSK9 [2] (setting [4]), less than 6 pM; at PCSK9 [3] (setting [5]), 5 pM.

`COc1ccc(C[C@@H]2NC(=O)[C@H]([C@@H](C)O)NC(=O)[C@@H]3[C@@H]4CCN3C(=O)[C@@H]3Cc5cn(c6ccc(F)cc56)CCCCCCN(Cc5ccc(cc5)CCNC(=O)[C@]5(C)CCCN5C2=O)C(=O)CCC(=O)N[C@@H](C)C(=O)N[C@H](CNC(=O)CCOCCOCC[N+](C)(C)CCNS(=O)(=O)CCCNS(=O)(=O)CCCNC(=O)CC[C@H](NC(=O)CCCCCCCCCCCCCCCCC(=O)O)C(=O)O)C(=O)N[C@@H](Cc2cccc(c2)CNC(=O)CO4)C(=O)N3)cc1` [Ex-68]: the figures for the Ki at PCSK9 [1], on PCSK9 [2] (setting [4]) and at PCSK9 [3] (setting [5]) were less than 1260 pM, less than 6 pM and 5 pM, respectively.

With `COc1ccc(C[C@@H]2NC(=O)[C@H]([C@@H](C)O)NC(=O)[C@@H]3[C@@H]4CCN3C(=O)[C@@H]3Cc5cn(c6ccc(F)cc56)CCCCCCN(Cc5ccc(cc5)CCNC(=O)[C@]5(C)CCCN5C2=O)C(=O)CCC(=O)N[C@@H](C)C(=O)N[C@H](CNC(=O)CCCCC[N+](C)(C)CCNC(=O)COCCOCCNC(=O)CCCCCCCCCCCCCCCCC(=O)O)C(=O)N[C@@H](Cc2cccc(c2)CNC(=O)CO4)C(=O)N3)cc1` [Example 1], the values for the Ki on PCSK9 [1], at PCSK9 [2] and at PCSK9 [3] were less than 1260 pM, less than 6 pM and 7 pM, respectively.

Turning to `COc1ccc(C[C@@H]2NC(=O)[C@H]([C@@H](C)O)NC(=O)[C@@H]3[C@@H]4CCN3C(=O)[C@@H]3Cc5cn(c6ccc(F)cc56)CCCCCCN(Cc5ccc(cc5)CCNC(=O)[C@]5(C)CCCN5C2=O)C(=O)CCC(=O)N[C@@H](C)C(=O)N[C@H](CNC(=O)CCCCC[N+](C)(C)CCNC(=O)COCCOCCNC(=O)COCCOCCNC(=O)CC[C@H](NC(=O)CCCCCCCCCCCCCCCCC(=O)O)C(=O)O)C(=O)N[C@@H](Cc2cccc(c2)CNC(=O)CO4)C(=O)N3)cc1` [Example 2], the Ki at PCSK9 [1] is less than 1260 pM; on PCSK9 [2], 14 pM; on PCSK9 [3], 6 pM.

As for `COc1ccc(C[C@@H]2NC(=O)[C@H]([C@@H](C)O)NC(=O)[C@@H]3[C@@H]4CCN3C(=O)[C@@H]3Cc5cn(c6ccc(F)cc56)CCCCCCN(Cc5ccc(cc5)CCNC(=O)[C@]5(C)CCCN5C2=O)C(=O)CCC(=O)N[C@@H](C)C(=O)N[C@H](CNC(=O)CCCCC[N+](C)(C)CCNC(=O)COCCOCCNC(=O)COCCOCCNC(=O)CC[C@H](NC(=O)CCCCCCCCCCCCCCC(=O)O)C(=O)O)C(=O)N[C@@H](Cc2cccc(c2)CNC(=O)CO4)C(=O)N3)cc1` [Example 3], the Ki was less than 1260 pM on PCSK9 [1], less than 6 pM at PCSK9 [2] and 5 pM at PCSK9 [3].

For the compound `COc1ccc(C[C@@H]2NC(=O)[C@H]([C@@H](C)O)NC(=O)[C@@H]3[C@@H]4CCN3C(=O)[C@@H]3Cc5cn(c6ccc(F)cc56)CCCCCCN(Cc5ccc(cc5)CCNC(=O)[C@]5(C)CCCN5C2=O)C(=O)CCC(=O)N[C@@H](C)C(=O)N[C@H](CNC(=O)CCOCCOCC[N+](C)(C)CCNC(=O)COCCOCCNC(=O)COCCOCCNC(=O)CC[C@H](NC(=O)CCCCCCCCCCCCCCC(=O)O)C(=O)O)C(=O)N[C@@H](Cc2cccc(c2)CNC(=O)CO4)C(=O)N3)cc1` [Example 4], the values for the Ki at PCSK9 [1], on PCSK9 [2] and on PCSK9 [3] were less than 1260 pM, less than 6 pM and 3 pM, respectively.

For `COc1ccc(C[C@@H]2NC(=O)[C@H]([C@@H](C)O)NC(=O)[C@@H]3[C@@H]4CCN3C(=O)[C@@H]3Cc5cn(c6ccc(F)cc56)CCCCCCN(Cc5ccc(cc5)CCNC(=O)[C@]5(C)CCCN5C2=O)C(=O)CCC(=O)N[C@@H](C)C(=O)N[C@H](CNC(=O)COCCOCCNC(=O)COCCOCCNC(=O)CCCCC[N+](C)(C)CCNC(=O)CC[C@H](NC(=O)CCCCCCCCCCCCCCCCC(=O)O)C(=O)O)C(=O)N[C@@H](Cc2cccc(c2)CNC(=O)CO4)C(=O)N3)cc1` [compound 30], the Ki was less than 1260 pM on PCSK9 [1], less than 6 pM at PCSK9 [2] (setting [4]) and 4 pM at PCSK9 [3] (setting [5]).

For `COc1ccc(C[C@@H]2NC(=O)[C@H]([C@@H](C)O)NC(=O)[C@@H]3[C@@H]4CCN3C(=O)[C@@H]3Cc5cn(c6ccc(F)cc56)CCCCCCN(Cc5ccc(cc5)CCNC(=O)[C@]5(C)CCCN5C2=O)C(=O)CCC(=O)N[C@@H](C)C(=O)N[C@H](CNC(=O)COCCOCCNC(=O)CCOCCOCC[N+](C)(C)CCNC(=O)COCCOCCNC(=O)COCCOCCNC(=O)CC[C@H](NC(=O)CCCCCCCCCCCCCCCCC(=O)O)C(=O)O)C(=O)N[C@@H](Cc2cccc(c2)CNC(=O)CO4)C(=O)N3)cc1` [compound 32], the Ki is less than 1260 pM on PCSK9 [1], 9 pM at PCSK9 [2] (setting [4]) and 11 pM at PCSK9 [3] (setting [5]).

Turning to `COc1ccc(C[C@@H]2NC(=O)[C@H]([C@@H](C)O)NC(=O)[C@@H]3[C@@H]4CCN3C(=O)[C@@H]3Cc5cn(c6ccc(F)cc56)CCCCCCN(Cc5ccc(cc5)CCNC(=O)[C@]5(C)CCCN5C2=O)C(=O)CCC(=O)N[C@@H](C)C(=O)N[C@H](CNC(=O)CC[C@H](NC(=O)CCCCC[N+](C)(C)CCNC(=O)COCCOCCNC(=O)COCCOCCNC(=O)CC[C@H](NC(=O)CCCCCCCCCCCCCCCCC(=O)O)C(=O)O)C(=O)O)C(=O)N[C@@H](Cc2cccc(c2)CNC(=O)CO4)C(=O)N3)cc1` [compound 33], the Ki on PCSK9 [1] is less than 1260 pM; on PCSK9 [2] (setting [4]) it was 14 pM; on PCSK9 [3] (setting [5]), 16 pM.

As to `COc1ccc(C[C@@H]2NC(=O)[C@H]([C@@H](C)O)NC(=O)[C@@H]3[C@@H]4CCN3C(=O)[C@@H]3Cc5cn(c6ccc(F)cc56)CCCCCCN(Cc5ccc(cc5)CCNC(=O)[C@]5(C)CCCN5C2=O)C(=O)CCC(=O)N[C@@H](C)C(=O)N[C@H](CNC(=O)COCCOCCNC(=O)COCCOCCNC(=O)CC[C@H](NC(=O)CC[C@H](NC(=O)CCOCCOCC[N+](C)(C)CCNC(=O)CCCCCCCCCCCCCCC(=O)O)C(=O)O)C(=O)O)C(=O)N[C@@H](Cc2cccc(c2)CNC(=O)CO4)C(=O)N3)cc1` [compound 37], the Ki is less than 1260 pM at PCSK9 [1], less than 6 pM on PCSK9 [2] (setting [4]) and 6 pM at PCSK9 [3] (setting [5]).

`COc1ccc(C[C@@H]2NC(=O)[C@H]([C@@H](C)O)NC(=O)C3C4CCN3C(=O)[C@@H]3Cc5cn(c6ccc(F)cc56)CCCCCCN(Cc5ccc(cc5)CCNC(=O)[C@]5(C)CCCN5C2=O)C(=O)CCC(=O)N[C@@H](C)C(=O)N[C@H](CNC(=O)CCOCCOCC[N+](C)(C)CCNC(=O)CCOCCOCC[N+](C)(C)CCNC(=O)COCCOCCNC(=O)COCCOCCNC(=O)CCCCCCCCCCCCCCC(=O)O)C(=O)N[C@@H](Cc2cccc(c2)CNC(=O)CO4)C(=O)N3)cc1` [compound 43]: the Ki was less than 1260 pM on PCSK9 [1], less than 6 pM on PCSK9 [2] (setting [4]) and 2 pM at PCSK9 [3] (setting [5]).
